Assays:
Assay type in all cases: in vivo
[1] = system: Amaranthus retoflexus (AMARE); assay: Pre-emergence Test (glasshouse, percentage damage to the plant); conditions: 1000 g/ha unless otherwise stated, five-point scale
[2] = system: Setaria faberi (SETFA); assay: as above; conditions: 1000 g/ha unless otherwise stated, five-point scale
[3] = system: Echinochloa crus-galli (ECHCG); assay: as above; conditions: 1000 g/ha unless otherwise stated, five-point scale
[4] = system: Ipomoea hederacea (IPOHE); assay: as above; conditions: 1000 g/ha unless otherwise stated, five-point scale
[5] = system: Lolium perenne (LOLPE); assay: as above; conditions: 1000 g/ha unless otherwise stated, five-point scale
[6] = system: Solanum nigrum (SOLNI); assay: as above; conditions: 1000 g/ha unless otherwise stated, five-point scale
[7] = system: Lolium perenne (LOLPE); assay: Post-emergence Test (glasshouse, percentage damage to the plant); conditions: post-emergence spray, 1000 g/ha unless otherwise stated, evaluated after 13 days
In short: (§1)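 Scored 13 days after spraying as percentage plant damage in five bands (5=81–100%, 4=61–80%, 3=41–60%, 2=21–40%, 1=0–20%). Spray at 1000 g/ha unless stated, in acetone/water 50:50 plus 0.5% Tween 20, onto sown glasshouse pots (24/16 °C, 14 h light, 65% humidity).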

[8] = system: Ipomoea hederacea (IPOHE); assay: as above; conditions: post-emergence spray, 1000 g/ha unless otherwise stated, evaluated after 13 days
In short: (§2)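 Seeds sown in standard soil in a glasshouse (24/16 °C day/night, 14 h light, 65% humidity), then sprayed with an aqueous solution of the compound formulated in acetone/water 50:50 with 0.5% Tween 20 at 1000 g/ha unless otherwise stated. Percentage damage was scored after 13 days on a five-point scale (5=81-100%; 1=0-20%).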

[9] = system: Solanum nigrum (SOLNI); assay: as above; conditions: post-emergence spray, 1000 g/ha unless otherwise stated, evaluated after 13 days
In short: as §1

[10] = system: Setaria faberi (SETFA); assay: as above; conditions: post-emergence spray, 1000 g/ha unless otherwise stated, evaluated after 13 days
In short: as §2

[11] = system: Amaranthus retoflexus (AMARE); assay: as above; conditions: post-emergence spray, 1000 g/ha unless otherwise stated, evaluated after 13 days
In short: as §1

[12] = system: Echinochloa crus-galli (ECHCG); assay: as above; conditions: post-emergence spray, 1000 g/ha unless otherwise stated, evaluated after 13 days
In short: as §1

For `CCn1c(C)c(-c2ccccn2)c(=O)c(C(=O)O)c1-c1ccc(Cl)c(Cl)c1.Cl` [Compound 28, 2-(3,4-dichlorophenyl)-1-ethyl-6-methyl-4-oxo-5-pyridin-1-ium-2-yl-pyridine-3-carboxylic acid;chloride], the “percentage damage to the plant, AMARE” value [1] was 1 (1=0-20%), the “percentage damage to the plant, SETFA” value [2] was 1 (1=0-20%) and the “percentage damage to the plant, ECHCG” value [3] was 1 (1=0-20%). For the same compound, the “percentage damage to the plant, IPOHE” value [4] was 3 (3=41-60%), the “percentage damage to the plant, LOLPE” value [5] was 1 (1=0-20%) and the “percentage damage to the plant, SOLNI” value [6] was 2 (2=21-40%). The “Post-emergence Test LOLPE, percentage damage to the plant (five-point scale)” value [7] was 2 (2=21-40%), the “Post-emergence Test IPOHE, percentage damage to the plant (five-point scale)” value [8] was 4 (4=61-80%) and the “Post-emergence Test SOLNI, percentage damage to the plant (five-point scale)” value [9] was 3 (3=41-60%). The “Post-emergence Test SETFA, percentage damage to the plant (five-point scale)” value [10] was 3 (3=41-60%), the “Post-emergence Test AMARE, percentage damage to the plant (five-point scale)” value [11] was 2 (2=21-40%) and the “Post-emergence Test ECHCG, percentage damage to the plant (five-point scale)” value [12] was 2 (2=21-40%).
`CCn1c(C)c(-c2ccc(Cl)cc2)c(=O)c(C(=O)O)c1-c1ccc(Cl)c(Cl)c1` [Compound 10, 5-(4-chlorophenyl)-2-(3,4-dichlorophenyl)-1-ethyl-6-methyl-4-oxo-pyridine-3-carboxylic acid] was tested, and the “percentage damage to the plant, AMARE” value [1] was 5 (5=81-100%), the “percentage damage to the plant, SETFA” value [2] was 4 (4=61-80%) and the “percentage damage to the plant, ECHCG” value [3] was 3 (3=41-60%). The “percentage damage to the plant, IPOHE” value [4] was 2 (2=21-40%), the “percentage damage to the plant, LOLPE” value [5] was 1 (1=0-20%) and the “percentage damage to the plant, SOLNI” value [6] was 4 (4=61-80%). The “Post-emergence Test LOLPE, percentage damage to the plant (five-point scale)” value [7] was 3 (3=41-60%), the “Post-emergence Test IPOHE, percentage damage to the plant (five-point scale)” value [8] was 4 (4=61-80%) and the “Post-emergence Test SOLNI, percentage damage to the plant (five-point scale)” value [9] was 5 (5=81-100%). The “Post-emergence Test SETFA, percentage damage to the plant (five-point scale)” value [10] was 5 (5=81-100%), the “Post-emergence Test AMARE, percentage damage to the plant (five-point scale)” value [11] was 5 (5=81-100%) and the “Post-emergence Test ECHCG, percentage damage to the plant (five-point scale)” value [12] was 4 (4=61-80%).
`CCn1c(C)c(-c2ccccc2F)c(=O)c(C(=O)O)c1-c1ccc(Cl)c(Cl)c1` [Compound 14, 2-(3,4-dichlorophenyl)-1-ethyl-5-(2-fluorophenyl)-6-methyl-4-oxo-pyridine-3-carboxylic acid] was tested, and the “percentage damage to the plant, AMARE” value [1] was 2 (2=21-40%), the “percentage damage to the plant, SETFA” value [2] was 5 (5=81-100%) and the “percentage damage to the plant, ECHCG” value [3] was 4 (4=61-80%). For the same compound, the “percentage damage to the plant, IPOHE” value [4] was 3 (3=41-60%), the “percentage damage to the plant, LOLPE” value [5] was 1 (1=0-20%) and the “percentage damage to the plant, SOLNI” value [6] was 2 (2=21-40%). For the same compound, the “Post-emergence Test LOLPE, percentage damage to the plant (five-point scale)” value [7] was 4 (4=61-80%), the “Post-emergence Test IPOHE, percentage damage to the plant (five-point scale)” value [8] was 4 (4=61-80%) and the “Post-emergence Test SOLNI, percentage damage to the plant (five-point scale)” value [9] was 3 (3=41-60%). For the same compound, the “Post-emergence Test SETFA, percentage damage to the plant (five-point scale)” value [10] was 4 (4=61-80%), the “Post-emergence Test AMARE, percentage damage to the plant (five-point scale)” value [11] was 4 (4=61-80%) and the “Post-emergence Test ECHCG, percentage damage to the plant (five-point scale)” value [12] was 4 (4=61-80%).
For `CCn1c(C)c(-c2cscc2C)c(=O)c(C(=O)O)c1-c1ccc(Cl)c(Cl)c1` [Compound 20, 2-(3,4-dichlorophenyl)-1-ethyl-6-methyl-5-(4-methyl-3-thienyl)-4-oxo-pyridine-3-carboxylic acid], the “percentage damage to the plant, AMARE” value [1] was 1 (1=0-20%), the “percentage damage to the plant, SETFA” value [2] was 4 (4=61-80%) and the “percentage damage to the plant, ECHCG” value [3] was 2 (2=21-40%). For the same compound, the “percentage damage to the plant, IPOHE” value [4] was 1 (1=0-20%), the “percentage damage to the plant, LOLPE” value [5] was 3 (3=41-60%) and the “percentage damage to the plant, SOLNI” value [6] was 2 (2=21-40%). The “Post-emergence Test LOLPE, percentage damage to the plant (five-point scale)” value [7] was 2 (2=21-40%), the “Post-emergence Test IPOHE, percentage damage to the plant (five-point scale)” value [8] was 2 (2=21-40%) and the “Post-emergence Test SOLNI, percentage damage to the plant (five-point scale)” value [9] was 3 (3=41-60%). For the same compound, the “Post-emergence Test SETFA, percentage damage to the plant (five-point scale)” value [10] was 4 (4=61-80%), the “Post-emergence Test AMARE, percentage damage to the plant (five-point scale)” value [11] was 4 (4=61-80%) and the “Post-emergence Test ECHCG, percentage damage to the plant (five-point scale)” value [12] was 3 (3=41-60%).
For `CCn1c(C)c(-c2ncco2)c(=O)c(C(=O)OC)c1-c1ccc(Cl)c(Cl)c1` [Compound 38, methyl 2-(3,4-dichlorophenyl)-1-ethyl-6-methyl-5-oxazol-2-yl-4-oxo-pyridine-3-carboxylate], the “percentage damage to the plant, AMARE” value [1] was 1 (1=0-20%), the “percentage damage to the plant, SETFA” value [2] was 1 (1=0-20%) and the “percentage damage to the plant, ECHCG” value [3] was 1 (1=0-20%). For the same compound, the “percentage damage to the plant, IPOHE” value [4] was 1 (1=0-20%), the “percentage damage to the plant, LOLPE” value [5] was 1 (1=0-20%) and the “percentage damage to the plant, SOLNI” value [6] was 1 (1=0-20%). The “Post-emergence Test LOLPE, percentage damage to the plant (five-point scale)” value [7] was 1 (1=0-20%), the “Post-emergence Test IPOHE, percentage damage to the plant (five-point scale)” value [8] was 1 (1=0-20%) and the “Post-emergence Test SOLNI, percentage damage to the plant (five-point scale)” value [9] was 1 (1=0-20%). The “Post-emergence Test SETFA, percentage damage to the plant (five-point scale)” value [10] was 1 (1=0-20%), the “Post-emergence Test AMARE, percentage damage to the plant (five-point scale)” value [11] was 1 (1=0-20%) and the “Post-emergence Test ECHCG, percentage damage to the plant (five-point scale)” value [12] was 1 (1=0-20%).
With `CCn1c(C)c(-c2ccnc(F)c2)c(=O)c(C(=O)O)c1-c1ccc(Cl)c(Cl)c1` [Compound 17, 2-(3,4-dichlorophenyl)-1-ethyl-5-(2-fluoro-4-pyridyl)-6-methyl-4-oxo-pyridine-3-carboxylic acid] the “percentage damage to the plant, AMARE” value [1] was 1 (1=0-20%), the “percentage damage to the plant, SETFA” value [2] was 5 (5=81-100%) and the “percentage damage to the plant, ECHCG” value [3] was 3 (3=41-60%). For the same compound, the “percentage damage to the plant, IPOHE” value [4] was 1 (1=0-20%), the “percentage damage to the plant, LOLPE” value [5] was 3 (3=41-60%) and the “percentage damage to the plant, SOLNI” value [6] was 3 (3=41-60%). The “Post-emergence Test LOLPE, percentage damage to the plant (five-point scale)” value [7] was 4 (4=61-80%), the “Post-emergence Test IPOHE, percentage damage to the plant (five-point scale)” value [8] was 4 (4=61-80%) and the “Post-emergence Test SOLNI, percentage damage to the plant (five-point scale)” value [9] was 3 (3=41-60%). The “Post-emergence Test SETFA, percentage damage to the plant (five-point scale)” value [10] was 4 (4=61-80%), the “Post-emergence Test AMARE, percentage damage to the plant (five-point scale)” value [11] was 4 (4=61-80%) and the “Post-emergence Test ECHCG, percentage damage to the plant (five-point scale)” value [12] was 4 (4=61-80%).
In the case of `CCn1c(C)c(-c2ncco2)c(=O)c(C(=O)O)c1-c1ccc(Cl)c(Cl)c1` [Compound 27, 2-(3,4-dichlorophenyl)-1-ethyl-6-methyl-5-oxazol-2-yl-4-oxo-pyridine-3-carboxylic acid], the “percentage damage to the plant, AMARE” value [1] is reported as 1 (1=0-20%), the “percentage damage to the plant, SETFA” value [2] is reported as 1 (1=0-20%) and the “percentage damage to the plant, ECHCG” value [3] is reported as 1 (1=0-20%). For the same compound, the “percentage damage to the plant, IPOHE” value [4] was 1 (1=0-20%), the “percentage damage to the plant, LOLPE” value [5] was 1 (1=0-20%) and the “percentage damage to the plant, SOLNI” value [6] was 1 (1=0-20%). The “Post-emergence Test LOLPE, percentage damage to the plant (five-point scale)” value [7] was 1 (1=0-20%), the “Post-emergence Test IPOHE, percentage damage to the plant (five-point scale)” value [8] was 2 (2=21-40%) and the “Post-emergence Test SOLNI, percentage damage to the plant (five-point scale)” value [9] was 3 (3=41-60%). For the same compound, the “Post-emergence Test SETFA, percentage damage to the plant (five-point scale)” value [10] was 3 (3=41-60%), the “Post-emergence Test AMARE, percentage damage to the plant (five-point scale)” value [11] was 3 (3=41-60%) and the “Post-emergence Test ECHCG, percentage damage to the plant (five-point scale)” value [12] was 3 (3=41-60%).
In the case of `CCn1c(C)c(-c2cncn2C)c(=O)c(C(=O)O)c1-c1ccc(Cl)c(Cl)c1` [Compound 40, 2-(3,4-dichlorophenyl)-1-ethyl-6-methyl-5-(3-methylimidazol-4-yl)-4-oxo-pyridine-3-carboxylic acid], the “percentage damage to the plant, AMARE” value [1] is reported as 1 (1=0-20%), the “percentage damage to the plant, SETFA” value [2] is reported as 1 (1=0-20%) and the “percentage damage to the plant, ECHCG” value [3] is reported as 1 (1=0-20%). The “percentage damage to the plant, IPOHE” value [4] was 1 (1=0-20%), the “percentage damage to the plant, LOLPE” value [5] was 1 (1=0-20%) and the “percentage damage to the plant, SOLNI” value [6] was 1 (1=0-20%). For the same compound, the “Post-emergence Test LOLPE, percentage damage to the plant (five-point scale)” value [7] was 1 (1=0-20%), the “Post-emergence Test IPOHE, percentage damage to the plant (five-point scale)” value [8] was 1 (1=0-20%) and the “Post-emergence Test SOLNI, percentage damage to the plant (five-point scale)” value [9] was 2 (2=21-40%). The “Post-emergence Test SETFA, percentage damage to the plant (five-point scale)” value [10] was 1 (1=0-20%), the “Post-emergence Test AMARE, percentage damage to the plant (five-point scale)” value [11] was 1 (1=0-20%) and the “Post-emergence Test ECHCG, percentage damage to the plant (five-point scale)” value [12] was 1 (1=0-20%).

— patent publication US12660819B2, “Herbicidal derivatives” (SYNGENTA CROP PROTECTION AG, priority 2020, dated 2026)
